pIC50: −log10 of the molar value. Read-outs that look alike come from different tables or passages of the source.
How the values were obtained:
[1] = test system: HSC-2 human oral cancer cell line; experiment: MTT cell proliferation assay, HSC-2; type: cell-based; settings: for % of DMSO control at 100 μM, HSC-2, 24 h: 24 h incubation; for % of DMSO control at 100 μM, HSC-2, 48 h: 48 h incubation; for % of DMSO control at 100 μM, HSC-2, 72 h: 72 h incubation
Method: (§1) UROTsa immortalized human urothelium cell line, HSC-2 human oral cancer cell line, T24 human bladder cancer cell line and A549 human lung cancer line were purchased from the American Type Culture Collection (ATCC, Rockville, MD, USA), and cultured in DMEM/F12 medium, supplemented with 10% fetal bovine serum and 50 μg/ml gentamicin, at 37° C. in a humidified 5% CO2 incubator. For each compound tested, powder was dissolved in DMSO at 100 mM concentration. This stock solution was then diluted in culture medium to final concentration values ranging between 1 μM and 100 μM. For each sample, DMSO was kept constant at 0.1% final concentration. The day before starting treatment, cells were seeded in 96-well plates, at a density of 2000 cells/well. Cells were allowed to attach overnight and then incubated with compounds at different final concentrations, or with DMSO only, for 24, 48 and 72 hours. All experiments were performed in triplicate.
(§2) Cell proliferation was determined using a colorimetric assay with 3-(4,5-dimethylthiazol-2-yl)-2,5-diphenyl tetrazolium bromide (MTT). The MTT assay measures the conversion of MTT to insoluble formazan by dehydrogenase enzymes of the intact mitochondria of living cells. Cell proliferation was evaluated by measuring the conversion of the tetrazolium salt MTT to formazan crystals upon treatment with compounds or DMSO only for 24, 48 and 72 hours. Briefly, cells were incubated for 2 hours at 37° C. with 100 μl fresh culture medium containing 5 μl of MTT reagent (5 mg/ml in PBS). The medium was removed and 200 μl isopropanol were added. The amount of formazan crystals formed correlated directly with the number of viable cells. The reaction product was quantified by measuring the absorbance at 540 nm using an ELISA plate reader. Experiments were repeated three times. Results were expressed as percentage of the control (control equals 100% and corresponds to the absorbance value of each sample at time zero) and presented as mean values±standard deviation of three independent experiments performed in triplicate.
(§3) Data were analysed using GraphPad Prism software for Windows (GraphPad Software, San Diego, CA). Significant differences between groups were determined using the one-way analysis of variance (ANOVA). A p value <0.05 was considered as statistically significant.

[2] = test system: T24 human bladder cancer cell line; experiment: MTT cell proliferation assay, T24; type: cell-based; settings: for % of DMSO control at 100 μM, T24, 24 h: 24 h incubation; for % of DMSO control at 100 μM, T24, 48 h: 48 h incubation; for % of DMSO control at 100 μM, T24, 72 h: 72 h incubation
Method: as §1, §2, §3

[3] = test system: A549 human lung cancer line; experiment: MTT cell proliferation assay, A549; type: cell-based; settings: for % of DMSO control at 100 μM, A549, 24 h: 24 h incubation; for % of DMSO control at 100 μM, A549, 48 h: 48 h incubation; for % of DMSO control at 100 μM, A549, 72 h: 72 h incubation
Method: as §1, §2, §3

NNMT = biological target: T1, NNMT (Homo sapiens, UniProt P40261); experiment: NNMT assay (HILIC-MS/MS, formation of MNA); settings: NA 200 μM, SAM 8.5 μM, maximum concentration tested 25 μM; for pIC50: read-out: IC50 values
T1 sequence (P40261 1-264): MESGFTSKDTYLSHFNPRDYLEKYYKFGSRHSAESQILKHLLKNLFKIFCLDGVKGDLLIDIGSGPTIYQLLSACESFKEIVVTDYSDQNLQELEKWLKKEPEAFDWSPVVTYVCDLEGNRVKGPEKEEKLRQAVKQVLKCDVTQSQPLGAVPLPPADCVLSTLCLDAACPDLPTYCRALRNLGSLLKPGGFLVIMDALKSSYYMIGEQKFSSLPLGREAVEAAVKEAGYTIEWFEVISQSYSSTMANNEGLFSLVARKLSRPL

[4] = Table 1, alkene linked aromatics
[5] = IC50 values (nM), Table 6, amino acid replacement
[6] = IC50 values (μM), Table 6, amino acid replacement
[7] = IC50 values (nM), Table 1, alkene linked aromatics
[8] = IC50 values (μM), Table 1, alkene linked aromatics

Row | SMILES | % of DMSO control at 100 μM, HSC-2, 24 h [1] | % of DMSO control at 100 μM, HSC-2, 48 h [1] | % of DMSO control at 100 μM, HSC-2, 72 h [1] | % of DMSO control at 100 μM, T24, 24 h [2] | % of DMSO control at 100 μM, T24, 48 h [2] | % of DMSO control at 100 μM, T24, 72 h [2] | % of DMSO control at 100 μM, A549, 24 h [3] | % of DMSO control at 100 μM, A549, 48 h [3] | % of DMSO control at 100 μM, A549, 72 h [3] | further results
1 | N#Cc1ccc(/C=C/CN(CC[C@H](N)C(=O)O)C[C@H]2O[C@@H](n3cnc4c(N)ncnc43)[C@H](O)[C@@H]2O)cc1 [GYZ-319] | 100 % of DMSO control | 53 % of DMSO control | 49 % of DMSO control | 100 % of DMSO control | 79 % of DMSO control | 86 % of DMSO control | 100 % of DMSO control | 74 % of DMSO control | 66 % of DMSO control | –
2 | COC(=O)[C@@H](N)CCN(C/C=C/c1ccc(C#N)cc1)C[C@H]1O[C@@H](n2cnc3c(N)ncnc32)[C@H](O)[C@@H]1O [GYZ-494] | 100 % of DMSO control | 100 % of DMSO control | 87 % of DMSO control | 100 % of DMSO control | 76 % of DMSO control | 100 % of DMSO control | 100 % of DMSO control | 100 % of DMSO control | 88 % of DMSO control | –
3 | CCOC(=O)[C@@H](N)CCN(C/C=C/c1ccc(C#N)cc1)C[C@H]1O[C@@H](n2cnc3c(N)ncnc32)[C@H](O)[C@@H]1O [GYZ-552] | 100 % of DMSO control | 100 % of DMSO control | 73 % of DMSO control | 100 % of DMSO control | 100 % of DMSO control | 100 % of DMSO control | 100 % of DMSO control | 100 % of DMSO control | 100 % of DMSO control | –
4 | CC(C)OC(=O)[C@@H](N)CCN(C/C=C/c1ccc(C#N)cc1)C[C@H]1O[C@@H](n2cnc3c(N)ncnc32)[C@H](O)[C@@H]1O [GYZ-553] | 100 % of DMSO control | 75 % of DMSO control | 56 % of DMSO control | 100 % of DMSO control | 71 % of DMSO control | 100 % of DMSO control | 100 % of DMSO control | 100 % of DMSO control | 100 % of DMSO control | –
5 | COC(=O)[C@H](CCN(C/C=C/c1ccc(C#N)cc1)C[C@H]1O[C@@H](n2cnc3c(N)ncnc32)[C@H](O)[C@@H]1O)NC(=O)CC(C)(C)c1c(C)cc(C)cc1OC(C)=O [GYZ-573] | 83 % of DMSO control | 69 % of DMSO control | 39 % of DMSO control | 100 % of DMSO control | 79 % of DMSO control | 62 % of DMSO control | 100 % of DMSO control | 100 % of DMSO control | 100 % of DMSO control | –
6 | CCCOC(=O)[C@@H](N)CCN(C/C=C/c1ccc(C#N)cc1)C[C@H]1O[C@@H](n2cnc3c(N)ncnc32)[C@H](O)[C@@H]1O [GYZ-579] | 100 % of DMSO control | 57 % of DMSO control | 63 % of DMSO control | 82 % of DMSO control | 71 % of DMSO control | 100 % of DMSO control | 100 % of DMSO control | 100 % of DMSO control | 100 % of DMSO control | –
7 | CCCOC(=O)[C@H](CCN(C/C=C/c1ccc(C#N)cc1)C[C@H]1O[C@@H](n2cnc3c(N)ncnc32)[C@H](O)[C@@H]1O)NC(=O)CC(C)(C)c1c(C)cc(C)cc1OC(C)=O [GYZ-580] | 59 % of DMSO control | 41 % of DMSO control | 16 % of DMSO control | 72 % of DMSO control | 36 % of DMSO control | 15 % of DMSO control | 83 % of DMSO control | 45 % of DMSO control | 25 % of DMSO control | –
8 | N#Cc1ccc(/C=C/CN(CC[C@H](N)C(=O)O)C[C@H]2O[C@@H](n3cnc4c(N)ncnc43)[C@H](O)[C@@H]2O)cc1C(N)=O [GYZ-755] | – | – | – | – | – | – | – | – | – | pIC50 (NNMT; [4]): 7.54
9 | N#Cc1ccc(/C=C/CN(CCCCc2ccccc2)C[C@H]2O[C@@H](n3cnc4c(N)ncnc43)[C@H](O)[C@@H]2O)cc1 [GYZ-756] | – | – | – | – | – | – | – | – | – | IC50 (NNMT; [5]): > 25000 nM; IC50 (NNMT; [6]): > 25000 nM
10 | Nc1ncnc2c1ncn2[C@@H]1O[C@H](CN(CC[C@H](N)C(=O)O)Cc2ccc(S(=O)(=O)F)cc2)[C@@H](O)[C@H]1O [GYZ-760] | – | – | – | – | – | – | – | – | – | IC50 (NNMT; IC50 values (nM), Table 3, 1-carbon alkyl linkers): 5620 nM; IC50 (NNMT; IC50 values (μM), Table 3, 1-carbon alkyl linkers): 5620 nM
11 | CCNCCN(C/C=C/c1ccc(C#N)cc1)C[C@H]1O[C@@H](n2cnc3c(N)ncnc32)[C@H](O)[C@@H]1O [GYZ-761] | – | – | – | – | – | – | – | – | – | IC50 (NNMT; [5]): > 25000 nM; IC50 (NNMT; [6]): > 25000 nM
12 | Nc1ncnc2c1ncn2[C@@H]1O[C@H](CN(C/C=C/c2cccc(S(=O)(=O)F)c2)CC[C@H](N)C(=O)O)[C@@H](O)[C@H]1O [GYZ-764] | – | – | – | – | – | – | – | – | – | pIC50 (NNMT; [4]): 7.05
13 | CC(=O)Oc1cc(C)cc(C)c1C(C)(C)CC(=O)N[C@@H](CCN(C/C=C/c1ccc(C#N)cc1)C[C@H]1O[C@@H](n2cnc3c(N)ncnc32)[C@H](O)[C@@H]1O)C(=O)O [MH128] | 100 % of DMSO control | 100 % of DMSO control | 65 % of DMSO control | 100 % of DMSO control | 83 % of DMSO control | 84 % of DMSO control | 100 % of DMSO control | 100 % of DMSO control | 100 % of DMSO control | –
14 | Nc1ncnc2c1ncn2[C@@H]1O[C@H](CN(C/C=C/c2c(F)c(F)c(F)c(F)c2F)CC[C@H](N)C(=O)O)[C@@H](O)[C@H]1O [MH609] | – | – | – | – | – | – | – | – | – | IC50 (NNMT; [7]): 400 nM; IC50 (NNMT; [8]): 400 nM
15 | N#Cc1c(F)c(F)c(/C=C/CN(CC[C@H](N)C(=O)O)C[C@H]2O[C@@H](n3cnc4c(N)ncnc43)[C@H](O)[C@@H]2O)c(F)c1F [MH610] | – | – | – | – | – | – | – | – | – | IC50 (NNMT; [7]): 7.14 nM; IC50 (NNMT; [8]): 7 nM
16 | Nc1ncnc2c1ncn2[C@@H]1O[C@H](CN(C/C=C/c2cc(F)c(F)c(F)c2)CC[C@H](N)C(=O)O)[C@@H](O)[C@H]1O [MH611] | – | – | – | – | – | – | – | – | – | IC50 (NNMT; [7]): 363 nM; IC50 (NNMT; [8]): 363 nM
17 | Nc1ncnc2c1ncn2[C@@H]1O[C@H](CN(C/C=C/c2c(F)c(F)cc(F)c2F)CC[C@H](N)C(=O)O)[C@@H](O)[C@H]1O [MH612] | – | – | – | – | – | – | – | – | – | IC50 (NNMT; [7]): 1810 nM; IC50 (NNMT; [8]): 1810 nM
